We go through 1 molecule from patent publication US10993920B2, “2-dodecyl-6-methoxycyclohexa-2,5-diene-1,4-dione as a cancer therapeutic” (MIDDLE TENNESSEE STATE UNIVERSITY, priority 2014, dated 2021).

Data set [1] concerns BT20. Briefly: Anti-proliferation assay (PrestoBlue) and IC50 determination. The class given is cell-based, human. The method, then:
(§1) BT20 and MCF-7, human breast carcinoma cell lines (ATCC), were maintained in RPMI 1640 and Dulbecco's Modified Eagle Medium (DMEM) (Sigma), respectively. THP-1, a human monocytic leukemic cell line (ATCC), was maintained in RPMI 1640. HMEC, a normal human mammary epithelial cell line (ATCC), was maintained in McCoy's 5A (ATCC). All mediums were supplemented with 10% fetal bovine serum (FBS) (Gibco) and 1% penicillin-streptomycin and all cells were incubated in a humidified atmosphere with 5% CO2 at 37° C.
(§2) The proliferation inhibition potential of DMDD was determined in human breast cancer cell lines MCF-7 and BT20 by a fluorescence dye staining method with the normal cell line HMEC serving as a control. Cells were seeded at a density of 4˜5×10^3 cells/well in a 96-well tissue culture-treated plate (Corning Costar) and were incubated overnight. They were then treated with DMDD at final concentrations of 320 μM, 100 μM, 32 μM, 10 μM, 3.2 μM, 1 μM, and 0.32 μM. An experimental control with cells only was also included. After incubation for 48 h, the viability of cells was assessed using PrestoBlue dye (Invitrogen) according to manufacturer's protocol. The fluorescence intensity was measured on a SpectraMax M2e microplate reader (Molecular Devices, Inc.) at a fluorescent excitation wavelength of 555 nm and emission wavelength of 590 nm. The results were expressed as a percentage, relative to untreated control cells, and the half maximal inhibitory concentration (IC50) values were calculated using non-linear regression analysis.

Data set [2] concerns MCF-7. The data set is described as above. The class given is cell-based, human. The method, then:
as §1, §2

The next data set relates to HMEC. Briefly: Anti-proliferation assay (PrestoBlue), normal cell control. Type of data set: cell-based, human. The conditions noted are these: for cell death: HMEC. The method, then: as §1, §2
Data set [3] relates to caspase 3/7 in MCF-7 cells. Briefly: Caspase-Glo 3/7 activation assay. The class given is cell-based, human. The conditions noted are these: MCF-7, 4 h, concentration-dependent. The method, then:
Caspase 3/7 and caspase 8 activities were analyzed using an in-situ luminescent maker in MCF-7 and BT20 cells respectively. […] Caspases activity was then determined using the Caspase-Glo 3/7 Assay (Promega) or the Caspase-Glo 8 Assay (Promega) according to the manufacturer's instructions. Briefly, cells were incubated with Caspase-Glo 3/7 substrate or Caspase-Glo 8 substrate and the luminescence of each sample was measured using a SpectraMax M2e Microplate Reader (Molecular Devices).

Data set [4] concerns caspase 3/7 in BT20 cells. Briefly: Caspase-Glo 3/7 activation assay. Type of data set: cell-based, human. The note with it: BT20, 4 h, concentration-dependent.
For data set [5], the system named is BT20. Briefly: Cytochrome c release assay. The class given is cell-based, human. The conditions noted are these: BT20, 48 h. The method, then:
(§3) MCF-7 and BT20 cells were seeded in a 96-well plate (Corning Costar) at a density of 8,000 cells/well and were subsequently treated with 100 μM of DMDD for 48 h. The percentage of cells releasing cytochrome c from mitochondria was determined using the FlowCellect Cytochrome c Kit (Millipore) according to the manufacturer's protocol. Briefly, cells were permeabilized, fixed, and stained with either anti-IgG1-FITC Isotype control or anti-Cytochrome c-FITC dye. Data was acquired and analyzed using a Guava flow cytometer and InCyte software (Millipore).

Data set [6] relates to MCF-7. Briefly: Cytochrome c release assay. The conditions noted are these: MCF-7, 48 h. Type of data set: cell-based, human. The method, then: as §3
Data set [7] concerns BT20. Briefly: Cell cycle analysis (PI staining). Type of data set: cell-based, human. The note with it: BT20, 24 h; increased from 46%; not concentration-dependent. The method, then:
(§4) MCF-7 and BT20 cells were first synchronized in the G0 phase by culturing cells for 24 h in serum-free medium, and then treated with 100 μM DMDD for 24 h. Cell cycle analysis was performed using propidium iodide (PI) (Millipore) staining as described (27). Cells were analyzed using a Guava flow cytometer with InCyte software (Millipore).

In data set [8] the test system is MCF-7. Briefly: Cell cycle analysis (PI staining). Type of data set: cell-based, human. The conditions noted are these: MCF-7, 24 h; increased from 52%; not concentration-dependent. The method, then:
as §4

In the next data set the test system is THP-1. Briefly: AlamarBlue cell viability of THP-1 cells. The class given is cell-based, human. The conditions noted are these: with or without LPS stimulation. The method, then:
THP-1 cells were seeded in a 96 well plate at a density of 5×10^5 cells/well, and incubated with 100 nM phorbol-12-myristate-13-acetate (PMA) (Sigma) for 72 h. After washing the wells with warm RPMI 1640 medium, cells were pretreated with various concentrations of DMDD (10, 32, 100 μM) for 30 minutes followed by 100 ng/ml Salmonella enterica serotype typhimurium lipopolysaccharide (LPS) (Sigma). Dexamethasone at 1 μM (Sigma) was used as a positive control. After 4 h of stimulation, supernatants were collected for the quantification of human TNF-α using the Duoset enzyme-linked immunosorbent assay (ELISA) development kit (R&D Systems). AlamarBlue cell viability reagent (Invitrogen) was used to access cell integrity, after the supernatant was removed, at a fluorescent excitation wavelength of 555 nm and emission wavelength of 590 nm.
(In general: Resazurin is reduced to fluorescent resorufin, in cell work by metabolically active cells.)

In data set [9] the test system is NF-κB nuclear translocation in MCF-7 cells. Briefly: Inhibition of TNF-α activated NF-κB translocation (HCS). The note with it: MCF-7, 2 h, 10 ng/ml TNF-α; concentration-dependent. The class given is cell-based, human. The method, then: MCF-7 cells were seeded in a 96 well plate (Corning Costar) at a density of 8,000 cells/well and then treated with 100 μM DMDD for 2 h, followed by the addition of 10 ng/ml tumor necrosis factor-alpha (TNF-α) (Sigma). Untreated cells and cells treated with 10 ng/ml TNF-α alone served as controls. Cells were fixed, permeabilized, and sequentially stained with Nuclear factor kappa B (NF-κB) primary antibody, Dylight 488-conjugated secondary antibody, and Hoechst 33342 dye. The Hoechst and DyLight fluorophores detect changes in nuclear morphology (blue fluorescence) and NF-κB distribution (green fluorescence), respectively. The samples were analyzed on an Arrayscan VTI HCS Reader (Thermo Scientific). The Nuclear Translocation BioApplication (Thermo Scientific) was used for image acquisition and analysis. For each well, at least 400 cells were automatically acquired and analyzed. The translocation index was calculated by measuring the average intensity difference of NF-κB between the identified cytoplasmic region and nuclear region (MEAN_CircRingAvgIntenDiffCh2).

For data set [10] the following is noted: single dose 5,000 mg/kg body weight; cited from earlier work.
Data set [11] deals with caspase-3, -8, -9 expression in pancreas tissue. The note with it: pancreas tissue of mice; cited from earlier work.

As usually defined, the IC50 is the concentration at which inhibition is half-maximal.

SMILES strings stand for the structures.

As to `CCCCCCCCCCCCC1=CC(=O)C=C(OC)C1=O` [DMDD, 2-dodecyl-6-methoxycyclohexa-2,5-diene-1,4-dione], the cell death in the data set on BT20 [1] (BT20, 3.2 μM) is recorded as 43.8%; with BT20 [1] (BT20, 10 μM) it was 63.5%; in the data set with MCF-7 [2] (MCF-7, 3.2 μM), 49.9%; in the data set with MCF-7 [2] (MCF-7, 10 μM), 84.5%; with HMEC (3.2 μM), “not affected”; in the data set with HMEC (10 μM), 12.7%. Besides, the IC50 with BT20 [1] (Homo sapiens, BT-20, BT20, 48 h treatment) is 5.03 µM; in the data set on MCF-7 [2] (Homo sapiens, MCF7, MCF-7, 48 h treatment) it was 3.44 µM; in the data set with HMEC (Homo sapiens, HMEC normal cells, 48 h treatment) it was 48.1 µM. In addition, the “caspase 3/7 activity vs untreated cells” value in data set [3] and in data set [4] was “increased significantly” each time. Moreover, the “cytochrome c release from mitochondria” value in the data set on BT20 [5] and in the data set with MCF-7 [6] was “released” in each case. In addition, the entries for the “percentage of G1 phase cells” value with BT20 [7] and with MCF-7 [8] were 65% and 71%, respectively. The “viability of THP-1 cells” value in the data set on THP-1 was “did not affect the viability”. In [9], the “inhibition of TNF-α-induced NF-κB nuclear translocation” value is “significant inhibition”. Also, the acute toxicity result in data set [10] is reported as “did not cause any acute toxicity”. Further, the “caspase-3, -8, -9 expression” value in data set [11] is on record as “significantly reduced”.
